What was measured:
[1] = Stability of stock solutions in methanol at 4°C; type: physicochemical; conditions: stock solution in methanol stored at 4°C, up to 7 days
[2] = Stability post extraction, reconstituted in methanol at room temperature; type: physicochemical; conditions: kept at room temperature

Row | Structure (SMILES) | Degradation of stock solution [1] | Degradation reconstituted in methanol after recovery [2]
1 | CC(C)C[C@H]1C(=O)N2CCC[C@H]2[C@]2(O)O[C@](NC(=O)[C@@H]3C=C4c5cccc6[nH]c(Br)c(c56)C[C@H]4N(C)C3)(C(C)C)C(=O)N12 [BCT, bromocriptine] | began to degrade significantly after 3 days | 
2 | O=C(CCCN1CCCN(c2ccc(Cl)cc2)CC1)c1ccc(F)cc1 [DAL, 4-[4-(4-Chlorophenyl)-1,4-diazepan-1-yl]-1-(4-fluorophenyl) butan-1-one] | no degradation after 7 days | no degradation
3 | O=C(CCCN1CC=C(n2c(=O)[nH]c3ccccc32)CC1)c1ccc(F)cc1 [DRO, droperidol] | no degradation after 7 days | no degradation

Source: paper PMC2893400 (Biomedical chromatography : BMC, 2010)
